# Molecular target: hLPA1 (Homo sapiens, UniProt Q92633)
# Experiment: LPA1 functional antagonist assay (LPA-induced calcium flux in CHO cells overexpressing human LPA1)
# Assay type: cell-based
# Parameters: expressed in transfected cells; host or cells: Chinese hamster ovary (CHO) cells
# Settings: antagonist mode, inhibition of calcium flux induced by 10 nM LPA, read-out: hLPA1 IC50
# Method: The effectiveness of compounds of the present invention as LPA1 inhibitors can be determined in an LPA1 functional antagonist assay as follows:
# Chinese hamster ovary cells overexpressing human LPA1 were plated overnight (15,000 cells/well) in poly-D-lysine coated 384-well microplates (Greiner bio-one, Cat #781946) in DMEM/F12 medium (Gibco, Cat #11039). Following overnight culture, cells were loaded with calcium indicator dye (AAT Bioquest Inc, Cat #34601) for 30 minutes at 37° C. The cells were then equilibrated to room temperature for 30 minutes before the assay. Test compounds solubilized in DMSO were transferred to 384 well non-binding surface plates (Corning, Cat #3575) using the Labcyte Echo acoustic dispense and diluted with assay buffer [1×HBSS with calcium/magnesium (Gibco Cat #14025-092), 20 mM HEPES (Gibco Cat #15630-080) and 0.1% fatty acid free BSA (Sigma Cat #A9205)] to a final concentration of 0.5% DMSO. Diluted compounds were added to the cells by FDSS6000 (Hamamatsu) at final concentrations ranging from 0.08 nM to 5 μM. and were then incubated for 20 min at room temperature at which time LPA (Avanti Polar Lipids Cat #857130C) was added at final concentrations of 10 nM to stimulate the cells. The compound IC50 value was defined as the concentration of test compound which inhibited 50% of the calcium flux induced by LPA alone. IC50 values were determined by fitting data to a 4-parameter logistic equation (GraphPad Prism, San Diego Calif.).
# Chain of hLPA1 (Q92633 whole entry): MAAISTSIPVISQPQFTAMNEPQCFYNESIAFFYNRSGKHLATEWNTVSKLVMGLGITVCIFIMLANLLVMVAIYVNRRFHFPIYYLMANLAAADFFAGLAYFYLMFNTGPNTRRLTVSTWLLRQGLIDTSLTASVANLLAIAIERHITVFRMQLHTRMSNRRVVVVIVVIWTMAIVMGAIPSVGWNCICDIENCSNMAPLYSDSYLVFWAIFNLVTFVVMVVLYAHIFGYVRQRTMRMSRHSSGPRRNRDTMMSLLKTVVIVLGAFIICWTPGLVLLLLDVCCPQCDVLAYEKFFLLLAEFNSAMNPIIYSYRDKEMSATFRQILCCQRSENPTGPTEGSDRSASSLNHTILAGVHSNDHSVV
row,Structure (SMILES),IC50 [nM]
1,"Cc1noc(-c2ccc(C34CCC(CC(=O)O)(CC3)OC4)c(F)c2)c1NC(=O)O[C@H](C)c1ccccc1Cl [Example 18, 2-(4-(4-(4-((((R)-1-(2-chlorophenyl)ethoxy)carbonyl)amino)-3-methyl-isoxazol-5-yl)-2-fluorophenyl)-2-oxabicyclo[2.2.2]octan-1-yl)acetic acid]",56
2,"Cc1noc(-c2ccc(C34CCC(CC(=O)O)(CC3)OC4)cc2F)c1NC(=O)O[C@H](C)C1CC1 [Example 20, 2-(4-(4-(4-((((R)-1-cyclopropylethoxy)carbonyl)amino)-3-methylisoxazol-5-yl)-3-fluorophenyl)-2-oxabicyclo[2.2.2]octan-1-yl)acetic acid]",863
3,"Cc1noc(-c2ccc(C34CCC(CC(=O)O)(CC3)OC4)cc2F)c1NC(=O)O[C@H](C)c1ccccc1 [Example 21, 2-(4-(3-fluoro-4-(3-methyl-4-((((R)-1-phenylethoxy)carbonyl)amino)isoxazol-5-yl)phenyl)-2-oxabicyclo[2.2.2]octan-1-yl)acetic acid]",95
4,"Cc1noc(-c2ccc(C34CCC(CC(=O)O)(CC3)OC4)cc2F)c1NC(=O)O[C@H](C)c1ccccc1Cl [Example 22, 2-(4-(4-(4-((((R)-1-(2-chlorophenyl)ethoxy)carbonyl)amino)-3-methylisoxazol-5-yl)-3-fluorophenyl)-2-oxabicyclo[2.2.2]octan-1-yl)acetic acid]",64
5,"Cc1ccccc1[C@@H](C)OC(=O)Nc1c(C)noc1-c1ccc(C23CCC(CC(=O)O)(CC2)OC3)cc1F [Example 23, 2-(4-(3-fluoro-4-(3-methyl-4-((((R)-1-(o-tolyl)ethoxy)carbonyl)amino)isoxazol-5-yl)phenyl)-2-oxabicyclo[2.2.2]octan-1-yl)acetic acid]",98
6,"Cc1cc(C23CCC(CC(=O)O)(CC2)OC3)ccc1-c1onc(C)c1NC(=O)O[C@H](C)c1ccccc1Cl [Example 27, 2-(4-(4-(4-((((R)-1-(2-chlorophenyl)ethoxy)carbonyl)amino)-3-methyl-isoxazol-5-yl)-3-methylphenyl)-2-oxabicyclo[2.2.2]octan-1-yl)acetic acid]",185
7,"C[C@@H](OC(=O)Nc1c(-c2ccc(C34CCC(CC(=O)O)(CC3)OC4)cc2)cnn1C)c1ccccc1Cl [Example 28, 2-(4-(4-(5-((((R)-1-(2-chlorophenyl)ethoxy)carbonyl)amino)-1-methyl-1H-pyrazol-4-yl)phenyl)-2-oxa-bicyclo[2.2.2]octan-1-yl)acetic acid]",164
8,"C[C@@H](OC(=O)Nc1c(-c2ccc(C34CCC(CC(=O)O)(CC3)OC4)c(F)c2)cnn1C)c1ccccc1 [Example 30, 2-(4-(2-fluoro-4-(1-methyl-5-((((R)-1-phenylethoxy)carbonyl)amino)-1H-pyrazol-4-yl)phenyl)-2-oxabicyclo[2.2.2]octan-1-yl)acetic acid]",365
9,"C[C@@H](OC(=O)Nc1c(-c2ccc(C34CCC(CC(=O)O)(CC3)OC4)c(F)c2)cnn1C)c1ccccc1Cl [Example 31, 2-(4-(4-(5-((((R)-1-(2-chlorophenyl)ethoxy)carbonyl)amino)-1-methyl-1H-pyrazol-4-yl)-2-fluorophenyl)-2-oxabicyclo[2.2.2]octan-1-yl)acetic acid]",112
10,"C[C@@H](OC(=O)Nc1c(-c2ccc(C34CCC(CC(=O)O)(CC3)OC4)cc2F)cnn1C)c1ccccc1Cl [Example 32, 2-(4-(4-(5-((((R)-1-(2-chlorophenyl)ethoxy)carbonyl)amino)-1-methyl-1H-pyrazol-4-yl)-3-fluorophenyl)-2-oxabicyclo[2.2.2]octan-1-yl)acetic acid]",115
11,"Cc1cc(C23CCC(CC(=O)O)(CC2)OC3)ccc1-c1cnn(C)c1NC(=O)O[C@H](C)c1ccccc1Cl [Example 33, 2-(4-(4-(5-((((R)-1-(2-chlorophenyl)ethoxy)carbonyl)amino)-1-methyl-1H-pyrazol-4-yl)-3-methylphenyl)-2-oxabicyclo[2.2.2]octan-1-yl)acetic acid]",537
12,"Cn1ncc(-c2ccc(C34CCC(CC(=O)O)(CC3)OC4)cc2)c1COC(=O)N1CC[C@H](F)C1 [Example 38, 2-(4-(4-(5-((((S)-3-fluoropyrrolidine-1-carbonyl)oxy)methyl)-1-methyl-1H-pyrazol-4-yl)phenyl)-2-oxabicyclo[2.2.2]octan-1-yl)acetic acid]",1900
13,"CC(C)CCN(C)C(=O)OCc1c(-c2ccc(C34CCC(CC(=O)O)(CC3)OC4)cc2)cnn1C [Example 39, 2-(4-(4-(5-(((isopentyl(methyl)carbamoyl)oxy)methyl)-1-methyl-1H-pyrazol-4-yl)phenyl)-2-oxabicyclo[2.2.2]octan-1-yl)acetic acid]",520
14,"CN(Cc1ccccc1)C(=O)OCc1c(-c2ccc(C34CCC(CC(=O)O)(CC3)OC4)cc2)cnn1C [Example 40, 2-(4-(4-(5-(((benzyl(methyl)carbamoyl)oxy)methyl)-1-methyl-1H-pyrazol-4-yl)phenyl)-2-oxabicyclo[2.2.2]octan-1-yl)acetic acid]",767
15,"CN(CCc1ccc(Cl)cc1)C(=O)OCc1c(-c2ccc(C34CCC(CC(=O)O)(CC3)OC4)cc2)cnn1C [Example 41, 2-(4-(4-(5-((((4-chlorophenethyl)(methyl)carbamoyl)oxy)methyl)-1-methyl-1H-pyrazol-4-yl)phenyl)-2-oxabicyclo[2.2.2]octan-1-yl)acetic acid]",2790
16,"CN(C(=O)OCc1c(-c2ccc(C34CCC(CC(=O)O)(CC3)OC4)c(F)c2)cnn1C)C1CCCC1 [Example 42, 2-(4-(4-(5-(((cyclopentyl(methyl)carbamoyl)oxy)methyl)-1-methyl-1H-pyrazol-4-yl)-2-fluorophenyl)-2-oxabicyclo[2.2.2]octan-1-yl)acetic acid]",232
17,"CC(C)CCN(C)C(=O)OCc1c(-c2ccc(C34CCC(CC(=O)O)(CC3)OC4)c(F)c2)cnn1C [Example 43, 2-(4-(2-fluoro-4-(5-(((isopentyl(methyl)carbamoyl)oxy)methyl)-1-methyl-1H-pyrazol-4-yl)phenyl)-2-oxabicyclo[2.2.2]octan-1-yl)acetic acid]",271
18,"CN(C(=O)OCc1c(-c2ccc(C34CCC(CC(=O)O)(CC3)OC4)cc2F)cnn1C)C1CCCC1 [Example 44, 2-(4-(4-(5-(((cyclopentyl(methyl)carbamoyl)oxy)methyl)-1-methyl-1H-pyrazol-4-yl)-3-fluorophenyl)-2-oxabicyclo[2.2.2]octan-1-yl)acetic acid]",1860
19,"CC(C)CCN(C)C(=O)OCc1c(-c2ccc(C34CCC(CC(=O)O)(CC3)OC4)cc2F)cnn1C [Example 45, 2-(4-(3-fluoro-4-(5-(((isopentyl(methyl)carbamoyl)oxy)methyl)-1-methyl-1H-pyrazol-4-yl)phenyl)-2-oxabicyclo[2.2.2]octan-1-yl)acetic acid]",1120
20,"Cc1noc(-c2ccc(C34CCC(CC(=O)O)(CC3)CO4)cc2)c1NC(=O)O[C@H](C)C1CC1 [Example 47, 2-(1-(4-(4-((((R)-1-cyclopropylethoxy)carbonyl)amino)-3-methylisoxazol-5-yl)phenyl)-2-oxabicyclo[2.2.2]octan-4-yl)acetic acid]",583
21,"Cc1noc(-c2ccc(C34CCC(CC(=O)O)(CC3)CO4)cc2)c1NC(=O)O[C@H](C)c1ccccc1Cl [Example 48, 2-(1-(4-(4-((((R)-1-(2-chlorophenyl)ethoxy)carbonyl)amino)-3-methyl-isoxazol-5-yl)phenyl)-2-oxabicyclo[2.2.2]octan-4-yl)acetic acid]",354
